Test results taken from patent US7459532B2, “Variants of the TRP channel family member, LTRPC3G” (Bristol-Myers Squibb Company, priority 2003, dated 2008).
Entries after “also recorded” stand apart in the source; their conditions may differ.

Assays:
[1] = target: T1, LTRPC3 (Homo sapiens, UniProt Q9HCF6, R1695Q); experiment: FLIPR Fluo-4 Ca^2+ entry in LTRPC3-transfected HEK 293 cells; format: cell-based; details: for block of LTRPC3 Ca^2+ conductance/currents (in words): 1 mM Ca^2+ solution, addition of 10 mM Ca^2+; for block of LTRPC3 Ca^2+ currents: pre-treatment with 100 μM, stimulated by adding 10 mM Ca^2+
T1 construct: the complete open reading frame of LTRPC3 with a C-terminal HA tag was transiently transfected into HEK 293 cells; expressed in transfected cells; host or cells: HEK 293 (transient transfection, vector pcDNA3.1/Hygro-LTRPC3-HA)
Description: (§1) […] (A), or 50 μM carbachol (B) was first added to LTRPC3 variant expressing HEK 293 cells in the absence of external Ca^2+. After 9 minutes, 2 mM Ca^2+ solution was added to the cell medium at the indicated times. Currents for vector transfected HEK 293 cells, and LTRPC3 variant expressing HEK 293 cells are labeled accordingly. […] Cells loaded with Fluo-4 were incubated in 1 mM Ca^2+ solution and treated with 100 μM of La^3+ (“w/La^3+”), Gd^3+ (“w/Gd^3+”) or without blockers (“w/o blocker”) for 10 min prior to the addition of 10 mM Ca^2+ to the cell medium as indicated. Curves represent averages of three independent experiments, each involving at least 8 wells per condition. Physiometric methods were performed as described in Example 7 herein.
(§2) Panels A, C and E show results obtained for vector-transfected cells, while Panels B, D and F show results obtained for TRPM3-transfected cells. […] Cells loaded with Fluo-4 were incubated in 1 mM Ca^2+ solution and treated with 100 μM of Gd^3+ (red) or without blockers (black) for 10 min prior to the addition of 10 mM Ca^2+ to the bath solution as indicated. […] Cells loaded with Fluo-4 were incubated in a nominally Ca^2+-free media and treated without blockers (black) or with 100 μM of Gd^3+ (red) for 10 min prior to the addition of 2 μM TG (Panels C and D, first arrow) or 50 μM CCh (Panels E and F, first arrow), Ca^2+ entry was stimulated by the bath addition of 10 mM Ca^2+ (second arrow). Representative traces from one of three independent experiments are shown; each trace is the mean of 12 wells per condition. Physiometric methods were performed as described in Example 10 herein.
Moreover, physiometric studies have shown that LTRPC3 is a functional Ca^2+ permeable channel (see FIGS. 18 and 19, and Example 7). LTRPC3g function was assessed using a Fluorometric Imaging Plate Reader (FLIPR™) that measures real-time intracellular fluorescence changes. Cells transiently transfected with vector or LTRPC3-HA were loaded with the cytoplasmic Ca^2+ indicator Fluoro-4 in a 1 mM Ca^2+ solution. […] The non-transfected cells were indistinguishable from the vector-transfected cells (data not shown). Therefore, LTRPC3 is a constitutively active channel capable of mediating Ca^2+ influx.
The lanthanides, gadolinium (Gd^3+) and lanthanum (La^3+), are noneselective Ca^2+-permeable channel blockers, often used as part of the characterization of overexpressed TRP channels. […] In the presence of 1 mM Ca^2+ in which endogenous SOCs is minimally activated (FIG. 18A), pre-treatment with 100 μM of La^3+ and Gd^3+ blocked LTRPC3 Ca^2+ currents, stimulated by adding 10 mM Ca^2+, by 67 and 39%, respectively.
Additional experiments were performed to further confirm the Ca^2+ store-depleted activation of LTRPC3 using Gd^3+. The effects of 100 μM Gd^3+ on Ca^2+ permeability were tested in vector- and LTRPC3-transfected cells. […] In contrast, 100 μM Gd^3+ inhibited Ca^2+ entry, induced by adding 10 mM Ca^2+, by 53% in LTRPC3-transfected cells (see FIG. 22B). Gd^3+ reduced fluorescence units in vector-transfected cells from 1470±140 to −58±8 and in LTRPC3-transfected cells from 6000±322 to 2080±199 (n=12). Fluorescence values were measured 150 seconds after adding 10 mM Ca^2+ and percent blockade was calculated as 1 minus FLTRPC3-FVector in the presence of Gd^3+ divided by FLTRPC3-FVector without blocker. The effects of Gd^3+ on LTRPC3-mediated Ca^2+ entry, induced by 10 mM Ca^2+, in the presence of thapsigargin or carbachol was also examined. Cells were incubated in nominally Ca^2+-free medium for thapsigargin and carbachol experiments. Gd^3+ inhibited Ca^2+ entry by 51% after depletion of intracellular stores with thapsigargin (see FIG. 22B). Gd^3+ reduced peak fluorescence after 10 mM Ca^2+ addition in vector-transfected cells from 26444±2410 to 1316±60 and in LTRPC3-transfected cells from 37676±2425 to 6783±250 (see FIGS. 22C and D, respectively; n=12). […]

[2] = tested on: female recipients; details: picogram quantities to the female vomeronasal organ; cited from earlier work
[3] = tested on: endogenous Ca^2+ entry pathways present in HEK 293 cells; experiment: FLIPR Fluo-4 Ca^2+ entry in vector-transfected HEK 293 cells; format: cell-based; details: 100 μM
Description: as §2
To further address the mechanism of LTRPC3-mediated Ca^2+ entry, similar Ca^2+ addition experiments were performed on transfected cells incubated (˜30 min) in a nominally Ca^2+-free solution. Previous studies have shown that lowering extracellular Ca^2+ concentration below physiological levels can deplete intracellular Ca^2+ stores in many cell types including HEK 293 (EMBO J. 17, 4274-4282, (1998)). Incubating vector-transfected HEK 293 cells in a nominally Ca^2+-free solution gave rise to Ca^2+ entry that was dependent on the concentration of Ca^2+ added to the buffers, indicating Ca^2+ influx was mediated through endogenous SOCs in HEK293 cells (FIG. 18, left panels). In LTRPC3 cells, the Ca^2+ transients triggered by similar Ca^2+ treatment were much larger (FIG. 18, right panels).
Additional experiments were performed to further confirm the Ca^2+ store-depleted activation of LTRPC3 using Gd^3+. The effects of 100 μM Gd^3+ on Ca^2+ permeability were tested in vector- and LTRPC3-transfected cells. […] In contrast, 100 μM Gd^3+ inhibited Ca^2+ entry, induced by adding 10 mM Ca^2+, by 53% in LTRPC3-transfected cells (see FIG. 22B). Gd^3+ reduced fluorescence units in vector-transfected cells from 1470±140 to −58±8 and in LTRPC3-transfected cells from 6000±322 to 2080±199 (n=12). Fluorescence values were measured 150 seconds after adding 10 mM Ca^2+ and percent blockade was calculated as 1 minus FLTRPC3-FVector in the presence of Gd^3+ divided by FLTRPC3-FVector without blocker. […] Gd^3+ reduced peak fluorescence after 10 mM Ca^2+ addition in vector-transfected cells from 26444±2410 to 1316±60 and in LTRPC3-transfected cells from 37676±2425 to 6783±250 (see FIGS. 22C and D, respectively; n=12). […] Gd^3+ reduced peak Ca^2+ fluorescence in vector-transfected cells from 9327±466 to 453±15 and in LTRPC3-transfected cells from 14747±988 to 1975±79 (see FIGS. 22E and F, respectively; n=12).

[4] = tested on: Human lung fibroblasts; experiment: human lung fibroblast growth assay with Alamar Blue; format: cell-based; details: 3 days in basal medium
Description: Human lung fibroblasts are obtained from Clonetics (San Diego, Calif.) and maintained in growth media from Clonetics. Dermal microvascular endothelial cells are obtained from Cell Applications (San Diego, Calif.). For proliferation assays, the human lung fibroblasts and dermal microvascular endothelial cells can be cultured at 5,000 cells/well in a 96-well plate for one day in growth medium. The cells are then incubated for one day in 0.1% BSA basal medium. After replacing the medium with fresh 0.1% BSA medium, the cells are incubated with the test proteins for 3 days. Alamar Blue (Alamar Biosciences, Sacramento, Calif.) is added to each well to a final concentration of 10%. The cells are incubated for 4 hr. Cell viability is measured by reading in a CytoFluor fluorescence reader. For the PGE2 assays, the human lung fibroblasts are cultured at 5,000 cells/well in a 96-well plate for one day. […]

[5] = tested on: nigral dopaminergic neurons; details: gel foam implants in the striatum; cited from earlier work
[6] = tested on: HEK 293 cells; experiment: Ca^2+ store depletion in LTRPC3-HA- and vector-transfected HEK 293 cells; format: cell-based
Description: as §1
The store-operated mechanism of LTRPC3-mediated Ca^2+ influx was tested further by passively depleting Ca^2+ stores with thapsigargin (TG), an inhibitor of microsomal Ca^2+ ATPases that pumps ions from the cytosol back into the stores. […] Following store depletion with TG, addition of Ca^2+ to the buffer induced a much larger Ca^2+ entry in LTRPC3 cells compared to the vector control cells.
Receptor-mediated Ca^2+ entry was also more pronounced in LTRPC3-HA-transfected cells. Carbachol (CCh) can activate an endogenous muscarinic receptor and trigger IP3 production, leading to store-depletion in HEK 293 cells. […]

[7] = 100 μM, nominally Ca^2+-free medium, 10 mM Ca^2+ addition

T1 sequence (Q9HCF6 with tags, fused parts or gaps isoform Q9HCF6-2 R1670Q): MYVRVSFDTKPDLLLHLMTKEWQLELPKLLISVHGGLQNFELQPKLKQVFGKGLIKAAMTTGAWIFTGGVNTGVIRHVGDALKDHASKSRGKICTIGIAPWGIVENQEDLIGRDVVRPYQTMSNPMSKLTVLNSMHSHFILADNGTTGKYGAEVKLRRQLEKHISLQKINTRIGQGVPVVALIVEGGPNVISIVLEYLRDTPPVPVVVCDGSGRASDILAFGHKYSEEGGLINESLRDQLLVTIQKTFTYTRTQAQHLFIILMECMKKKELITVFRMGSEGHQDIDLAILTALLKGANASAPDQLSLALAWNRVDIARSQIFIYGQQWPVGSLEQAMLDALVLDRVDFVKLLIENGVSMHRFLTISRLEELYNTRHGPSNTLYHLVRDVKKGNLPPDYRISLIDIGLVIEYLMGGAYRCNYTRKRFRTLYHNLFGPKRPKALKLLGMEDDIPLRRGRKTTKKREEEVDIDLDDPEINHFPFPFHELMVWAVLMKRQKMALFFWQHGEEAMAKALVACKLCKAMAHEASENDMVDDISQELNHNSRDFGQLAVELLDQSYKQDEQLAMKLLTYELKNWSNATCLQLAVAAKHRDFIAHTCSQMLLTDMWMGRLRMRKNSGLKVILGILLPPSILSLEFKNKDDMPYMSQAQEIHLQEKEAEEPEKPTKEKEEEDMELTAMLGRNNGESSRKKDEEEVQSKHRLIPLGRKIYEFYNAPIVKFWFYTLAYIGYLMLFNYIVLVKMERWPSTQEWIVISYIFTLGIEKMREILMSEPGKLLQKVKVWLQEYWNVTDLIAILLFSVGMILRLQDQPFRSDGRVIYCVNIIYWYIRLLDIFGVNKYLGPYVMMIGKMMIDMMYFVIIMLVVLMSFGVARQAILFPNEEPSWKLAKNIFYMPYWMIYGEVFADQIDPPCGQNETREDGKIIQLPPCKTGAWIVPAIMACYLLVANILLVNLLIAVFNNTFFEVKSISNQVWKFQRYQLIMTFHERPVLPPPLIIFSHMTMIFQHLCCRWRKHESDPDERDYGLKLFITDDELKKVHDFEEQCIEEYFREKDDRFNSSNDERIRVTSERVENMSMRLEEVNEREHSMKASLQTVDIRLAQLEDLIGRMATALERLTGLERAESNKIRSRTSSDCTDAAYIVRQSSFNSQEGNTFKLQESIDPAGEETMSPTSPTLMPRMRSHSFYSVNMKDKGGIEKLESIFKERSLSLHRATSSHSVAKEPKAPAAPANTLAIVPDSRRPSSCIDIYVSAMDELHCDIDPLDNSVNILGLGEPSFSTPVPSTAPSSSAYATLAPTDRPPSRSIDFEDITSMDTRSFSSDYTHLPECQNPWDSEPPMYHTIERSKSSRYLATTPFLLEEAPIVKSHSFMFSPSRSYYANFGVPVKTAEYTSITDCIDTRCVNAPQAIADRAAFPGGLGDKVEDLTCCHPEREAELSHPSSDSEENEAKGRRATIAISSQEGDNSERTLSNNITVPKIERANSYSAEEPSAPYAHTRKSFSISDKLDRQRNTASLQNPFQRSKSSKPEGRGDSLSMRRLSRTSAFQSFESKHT

## [La+3] [La^3+, lanthanum (La^3+)]
[1]; 100 μM for 10 min
  block of LTRPC3 Ca^2+ conductance/currents (in words): inhibited; also recorded: more potent
[1]; 1 mM Ca^2+
  block of LTRPC3 Ca^2+ currents: 67%

## C[C@@]12C=CC[C@H]1[C@@H]1CCC3=CC(=O)CC[C@]3(C)[C@H]1CC2 [androstadienone]
[2]
  nervousness, tension and other negative feelings: significant reduction

## [Gd+3] [Gd^3+, gadolinium (Gd^3+)]
[1]; 100 μM for 10 min
  block of LTRPC3 Ca^2+ conductance/currents (in words): partially inhibited
[1]; 100 μM for 10 min, nominally Ca^2+-free media, 2 μM TG or 50 μM CCh, 10 mM Ca^2+
  effect on Tg and CCh induced LTRPC3 variant-mediated Ca^2+ entry (in words): can be inhibited
[1]; 100 μM, 1 mM Ca^2+, 150 seconds after adding 10 mM Ca^2+, n=12
  fluorescence in the presence of blocker, LTRPC3-transfected cells: 2080±199 fluorescence units
[1]; 100 μM, cells in 1 mM Ca^2+, induced by adding 10 mM Ca^2+, 150 seconds after addition
  inhibition of Ca^2+ entry (percent blockade): 53%
[1]; [7]
  inhibition of Ca^2+ entry after depletion of intracellular stores with carbachol: 72%
  inhibition of Ca^2+ entry after depletion of intracellular stores with thapsigargin: 51%
[1]; 100 μM, nominally Ca^2+-free medium, 10 mM Ca^2+ addition, n=12
  peak Ca^2+ fluorescence in the presence of blocker after carbachol, LTRPC3-transfected cells: 1975±79
[1]; 100 μM, nominally Ca^2+-free medium, after 10 mM Ca^2+ addition, n=12
  peak fluorescence in the presence of blocker after thapsigargin, LTRPC3-transfected cells: 6783±250
[1]; 1 mM Ca^2+
  block of LTRPC3 Ca^2+ currents: 39%
[3]; 1 mM Ca^2+, 150 seconds after adding 10 mM Ca^2+, n=12
  fluorescence in the presence of blocker, vector-transfected cells: −58±8 fluorescence units
[3]; 1 mM Ca^2+, addition of 10 mM Ca^2+
  effect on minimal Ca^2+ influx in vector-transfected cells (in words): strongly inhibited
[3]; nominally Ca^2+-free medium, 10 mM Ca^2+ addition, n=12
  peak Ca^2+ fluorescence in the presence of blocker after carbachol, vector-transfected cells: 453±15
[3]; nominally Ca^2+-free medium, after 10 mM Ca^2+ addition, n=12
  peak fluorescence in the presence of blocker after thapsigargin, vector-transfected cells: 1316±60

## FGF-2: FGF-2 (basic FGF), growth factor used as comparator
[4]
  concentration at which stimulation of fibroblast growth should be shown: 10 to 2500 ng/mL
[5]
  protection of nigral dopaminergic neurons from the toxicity associated with MPTP exposure: near complete protection

## C[N+](C)(C)CCOC(N)=O [CCh, Carbachol]
[6]; 50 μM, LTRPC3- and vector-transfected cells
  intracellular Ca^2+ response (in words): transient and rapid intracellular Ca^2+ increase

## C/C=C(/C)C(=O)O[C@H]1C(C)=C2[C@H]([C@@H]1OC(=O)CCCCCCC)[C@@](C)(OC(C)=O)C[C@H](OC(=O)CCC)[C@@]1(O)[C@H]2OC(=O)[C@@]1(C)O [thapsigargin]
[6]; 2 μM, LTRPC3-HA- and vector-transfected cells
  depletion of Ca^2+ stores (in words): equivalently depleted Ca^2+ stores
